Square brackets hold non-standard residues; d marks the D form. Peptide text beside a SMILES is read from it. Oic = O=C(O)[C@@H]1C[C@@H]2CCCC[C@@H]2N1; 1Nal = N[C@@H](Cc1cccc2ccccc12)C(=O)O; 2Nal = N[C@@H](Cc1ccc2ccccc2c1)C(=O)O; hArg = N=C(N)NCCCC[C@H](N)C(=O)O; Cit = NC(=O)NCCC[C@H](N)C(=O)O; Ahx = NCCCCCC(=O)O
Each compound was assayed against T1, CGRP1 receptor (Homo sapiens, UniProt O60894+Q16602) (assay: in vitro CGRP1 receptor mediated cAMP assay in SK-N-MC cells). Settings: Table 2C; unconjugated peptide; read-out: Peptide IC50.
T1 construct: SK-N-MC cells express CRLR and RAMP1, which form CGRP1 receptor; endogenous in cells; host or cells: SK-N-MC human neuroblastoma cells
Type: cell-based
Summary of the method: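 Intracellular cAMP served as the Gs-coupled CGRP1 readout in endogenously expressing SK-N-MC cells. After a 15-minute room-temperature step in plasma-free medium, cell lysates (30 minutes, 37° C) went into a competitive ELISA with a cAMP-AP conjugate and anti-cAMP antibody for 1 hour, then a 30-minute substrate enhancer step before reading.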

T1 sequence (Q16602 23-461): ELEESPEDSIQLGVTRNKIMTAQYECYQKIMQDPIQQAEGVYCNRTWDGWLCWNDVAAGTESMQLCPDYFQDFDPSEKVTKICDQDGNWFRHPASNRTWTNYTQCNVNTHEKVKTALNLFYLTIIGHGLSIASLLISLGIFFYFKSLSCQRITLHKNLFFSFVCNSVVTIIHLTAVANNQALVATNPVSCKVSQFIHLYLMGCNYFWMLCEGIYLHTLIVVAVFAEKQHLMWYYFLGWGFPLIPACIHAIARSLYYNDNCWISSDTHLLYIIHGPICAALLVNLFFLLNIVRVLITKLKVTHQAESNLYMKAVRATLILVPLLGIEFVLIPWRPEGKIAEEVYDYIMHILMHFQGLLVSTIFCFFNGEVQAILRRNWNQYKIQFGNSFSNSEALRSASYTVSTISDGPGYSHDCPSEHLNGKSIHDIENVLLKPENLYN
T1 sequence (O60894 27-148): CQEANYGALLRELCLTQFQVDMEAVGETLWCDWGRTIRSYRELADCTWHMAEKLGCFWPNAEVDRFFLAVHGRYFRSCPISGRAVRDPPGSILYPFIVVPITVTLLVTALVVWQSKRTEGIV

`CC(=O)N[C@@H](Cc1c[nH]c2ccccc12)C(=O)N[C@H](C(=O)N[C@H](C(=O)N[C@@H](Cc1c[nH]cn1)C(=O)N[C@@H](CCCNC(=N)N)C(=O)N[C@@H](CC(C)C)C(=O)N[C@@H](C)C(=O)NCC(=O)N[C@@H](CC(C)C)C(=O)N[C@@H](CC(C)C)C(=O)N[C@@H](CO)C(=O)N[C@@H](CCCNC(=N)N)C(=O)N[C@@H](CO)C(=O)NCC(=O)NCC(=O)N[C@H](C(=O)N[C@H](C(=O)N[C@@H](CCCNC(=N)N)C(=O)N[C@@H](CCCCN)C(=O)N[C@@H](CC(N)=O)C(=O)N[C@@H](Cc1ccc2ccccc2c1)C(=O)N[C@H](C(=O)N1CCC[C@H]1C(=O)N[C@H](C(=O)N[C@@H](CC(=O)O)C(=O)N[C@H](C(=O)NCC(=O)N1CCC[C@H]1C(=O)N[C@@H](Cc1ccccc1)C(=O)N[C@@H](C)C(=O)N[C@@H](Cc1ccccc1)C(N)=O)C(C)C)[C@@H](C)O)C(C)C)C(C)C)C(C)C)[C@@H](C)O)C(C)C` [compound 912] (Ac-WVTHRLAGLLSRSGGVVRKN[2Nal]VPTDVGPFAF-NH2) and `CC(=O)N[C@@H](Cc1c[nH]c2ccccc12)C(=O)N[C@H](C(=O)N[C@H](C(=O)N[C@@H](Cc1c[nH]cn1)C(=O)N[C@@H](CCCCNC(=N)N)C(=O)N[C@@H](CC(C)C)C(=O)N[C@@H](C)C(=O)NCC(=O)N[C@@H](CC(C)C)C(=O)N[C@@H](CC(C)C)C(=O)N[C@@H](CO)C(=O)N[C@@H](CCCNC(N)=O)C(=O)N[C@@H](CO)C(=O)NCC(=O)NCC(=O)N[C@H](C(=O)N[C@H](C(=O)N[C@@H](CCCCNC(=N)N)C(=O)N[C@@H](CCCCN)C(=O)N[C@@H](CC(N)=O)C(=O)N[C@@H](Cc1ccccc1)C(=O)N[C@H](C(=O)N1CCC[C@H]1C(=O)N[C@H](C(=O)N[C@@H](CC(=O)O)C(=O)N[C@H](C(=O)NCC(=O)N1CCC[C@H]1C(=O)N[C@@H](Cc1ccc2ccccc2c1)C(=O)N[C@@H](C)C(=O)N[C@@H](Cc1ccccc1)C(N)=O)C(C)C)[C@@H](C)O)C(C)C)C(C)C)C(C)C)[C@@H](C)O)C(C)C` [compound 926] (Ac-WVTH[hArg]LAGLLS[Cit]SGGVV[hArg]KNFVPTDVGP[2Nal]AF-NH2) are within 1.5-fold of each other in IC50: 1.16 nM for the first, 0.88 nM for the second.

`CC(C)C[C@H](NC(=O)CNC(=O)[C@H](C)NC(=O)[C@H](CC(C)C)NC(=O)[C@H](CCCNC(=N)N)NC(=O)[C@H](Cc1c[nH]cn1)NC(=O)[C@@H](NC(=O)[C@@H](NC(=O)[C@H](Cc1c[nH]c2ccccc12)NC(=O)CCCCCNC(=O)[C@@H](N)CS)C(C)C)[C@@H](C)O)C(=O)N[C@@H](CC(C)C)C(=O)N[C@@H](CO)C(=O)N[C@@H](CCCNC(=N)N)C(=O)N[C@@H](CO)C(=O)NCC(=O)NCC(=O)N[C@H](C(=O)N[C@H](C(=O)N[C@@H](CCCNC(=N)N)C(=O)N[C@@H](CCCCN)C(=O)N[C@@H](CC(N)=O)C(=O)N[C@@H](Cc1ccccc1)C(=O)N[C@H](C(=O)N1CCC[C@H]1C(=O)N[C@H](C(=O)N[C@@H](CC(=O)O)C(=O)N[C@H](C(=O)NCC(=O)N1CCC[C@H]1C(=O)N[C@@H](Cc1ccccc1)C(=O)N[C@@H](C)C(=O)N[C@@H](Cc1ccccc1)C(N)=O)C(C)C)[C@@H](C)O)C(C)C)C(C)C)C(C)C` [compound 916] (H-C[Ahx]WVTHRLAGLLSRSGGVVRKNFVPTDVGPFAF-NH2) and `CC(=O)N[C@@H](Cc1c[nH]c2ccccc12)C(=O)N[C@H](C(=O)N[C@H](C(=O)N[C@@H](Cc1c[nH]cn1)C(=O)N[C@@H](CCCNC(N)=O)C(=O)N[C@@H](CC(C)C)C(=O)N[C@@H](C)C(=O)NCC(=O)N[C@@H](CC(C)C)C(=O)N[C@@H](CC(C)C)C(=O)N[C@@H](CO)C(=O)N[C@@H](CCCNC(N)=O)C(=O)N[C@@H](CO)C(=O)NCC(=O)NCC(=O)N[C@H](C(=O)N[C@H](C(=O)N[C@@H](CCCNC(=N)N)C(=O)N[C@@H](CCCCN)C(=O)N[C@@H](CC(N)=O)C(=O)N[C@@H](Cc1ccccc1)C(=O)N[C@H](C(=O)N1CCC[C@H]1C(=O)N[C@H](C(=O)N[C@@H](CC(=O)O)C(=O)N[C@H](C(=O)NCC(=O)N1CCC[C@H]1C(=O)N[C@@H](Cc1ccccc1)C(=O)N[C@@H](C)C(=O)N[C@@H](Cc1ccc(I)cc1)C(N)=O)C(C)C)[C@@H](C)O)C(C)C)C(C)C)C(C)C)[C@@H](C)O)C(C)C` [compound 923] are within 1.5-fold of each other in IC50: 1.8 nM for the first, 2.24 nM for the second.

`CC(=O)N[C@@H](Cc1c[nH]c2ccccc12)C(=O)N[C@H](C(=O)N[C@H](C(=O)N[C@@H](Cc1c[nH]cn1)C(=O)N[C@@H](CCCNC(N)=O)C(=O)N[C@@H](CC(C)C)C(=O)N[C@@H](C)C(=O)NCC(=O)N[C@@H](CC(C)C)C(=O)N[C@@H](CC(C)C)C(=O)N[C@@H](CO)C(=O)N[C@@H](CCCNC(N)=O)C(=O)N[C@@H](CO)C(=O)NCC(=O)NCC(=O)N[C@H](C(=O)N[C@H](C(=O)N[C@@H](CCCNC(=N)N)C(=O)N[C@@H](CCCCN)C(=O)N[C@@H](CC(N)=O)C(=O)N[C@@H](Cc1ccccc1)C(=O)N[C@H](C(=O)N1CCC[C@H]1C(=O)N[C@H](C(=O)N[C@@H](CC(=O)O)C(=O)N[C@H](C(=O)NCC(=O)N1[C@H](C(=O)N[C@@H](Cc2ccccc2)C(=O)N[C@@H](C)C(=O)N[C@@H](Cc2ccccc2)C(N)=O)C[C@@H]2CCCC[C@@H]21)C(C)C)[C@@H](C)O)C(C)C)C(C)C)C(C)C)[C@@H](C)O)C(C)C` [compound 920] (Ac-WVTH[Cit]LAGLLS[Cit]SGGVVRKNFVPTDVG[Oic]FAF-NH2) and `CC(=O)N[C@@H](Cc1c[nH]c2ccccc12)C(=O)N[C@H](C(=O)N[C@H](C(=O)N[C@@H](Cc1c[nH]cn1)C(=O)N[C@@H](CCCNC(N)=O)C(=O)N[C@@H](CC(C)C)C(=O)N[C@@H](C)C(=O)NCC(=O)N[C@@H](CC(C)C)C(=O)N[C@@H](CC(C)C)C(=O)N[C@@H](CO)C(=O)N[C@@H](CCCNC(N)=O)C(=O)N[C@@H](CO)C(=O)NCC(=O)NCC(=O)N[C@H](C(=O)N[C@H](C(=O)N[C@@H](CCCCNC(=N)N)C(=O)N[C@@H](CCCCN)C(=O)N[C@@H](CC(N)=O)C(=O)N[C@@H](Cc1ccccc1)C(=O)N[C@H](C(=O)N1CCC[C@H]1C(=O)N[C@H](C(=O)N[C@@H](CC(=O)O)C(=O)N[C@H](C(=O)NCC(=O)N1[C@H](C(=O)N[C@@H](Cc2cccc3ccccc23)C(=O)N[C@@H](C)C(=O)N[C@@H](Cc2ccccc2)C(N)=O)C[C@@H]2CCCC[C@@H]21)C(C)C)[C@@H](C)O)C(C)C)C(C)C)C(C)C)[C@@H](C)O)C(C)C` [compound 933] (Ac-WVTH[Cit]LAGLLS[Cit]SGGVV[hArg]KNFVPTDVG[Oic][1Nal]AF-NH2) are within 1.5-fold of each other in IC50: 0.85 nM for the first, 0.88 nM for the second.

Work on `CC(=O)N[C@@H](Cc1c[nH]c2ccccc12)C(=O)N[C@H](C(=O)N[C@H](C(=O)N[C@@H](Cc1c[nH]cn1)C(=O)N[C@@H](CCCNC(N)=O)C(=O)N[C@@H](CC(C)C)C(=O)N[C@@H](C)C(=O)NCC(=O)N[C@@H](CC(C)C)C(=O)N[C@@H](CC(C)C)C(=O)N[C@@H](CO)C(=O)N[C@@H](CCCNC(N)=O)C(=O)N[C@@H](CO)C(=O)NCC(=O)NCC(=O)N[C@H](C(=O)N[C@H](C(=O)N[C@@H](CCCCNC(=N)N)C(=O)N[C@@H](CCCCN)C(=O)N[C@@H](CC(N)=O)C(=O)N[C@@H](Cc1ccc(I)cc1)C(=O)N[C@H](C(=O)N1CCC[C@H]1C(=O)N[C@H](C(=O)N[C@@H](CC(=O)O)C(=O)N[C@H](C(=O)NCC(=O)N1CCC[C@H]1C(=O)N[C@@H](Cc1ccc(I)cc1)C(=O)N[C@@H](C)C(=O)N[C@@H](Cc1ccccc1)C(N)=O)C(C)C)[C@@H](C)O)C(C)C)C(C)C)C(C)C)[C@@H](C)O)C(C)C` [compound 928] yielded an IC50 of 1.16 nM.

Reference: patent publication US8168592B2 (Amgen Inc., priority 2005, dated 2012)
